The values that follow come from paper PMC11862924, “Phenylpyrazoles as Inhibitors of the m^6A RNA-Binding Protein YTHDF2” (JACS Au, 2025).

For series [1], the target named is T1, YTHDC1 (residues 345-509) (Homo sapiens, UniProt Q96MU7).
T1 construct: YTHDC1 (residues 345–509); made in house; host or cells: Escherichia coli BL21(DE3); plasmid from the Zhou lab (Boston College)
Briefly: FP assay with YTH domain of YTHDC1. The conditions noted are these: 2.0 µM YTHDC1. The format is binding. On the procedure:
(§1) The FP assay was performed in 384-well black plates (Corning no. 4514) with a total reaction volume of 15 μL. The final concentrations of protein (YTHDF2) and RNA were […], respectively, in a buffer containing 20 mM HEPES/KOH pH 7.5, 50 mM NaCl, 0.005% Tween 20, and 1 mM GSH (DTT). Compounds were incubated with protein, added FAM-m^6A RNA probe ([…](m6)ACUGUG) (purchased from IDT), and incubated at 4 °C for 30 min. The fluorescence polarization was measured using a plate reader (TECAN Spark) under an excitation wavelength of 485 nm and an emission wavelength of 535 nm with a bandwidth of 20 nm. […] The data were determined using GraphPad Prism 9.
Figure S10. The FP assay of YTHDC1 binding to the m6A RNA substrate. (A) The purification of YTHDC1 (residues 345-509), molecular weight: 19.9 kDa. (B) The anisotropy values using different concentrations of YTHDC1 with the m6A RNA probe (4 nM), which was used to decide the appropriate […] concentration for the FP (2.0 µM of YTHDC1, Z-factor: 0.54). (C) CK- […]
(§2) (1 picture or pasted object on this page, not shown here)

A further series has as its target T2, YTHDC1 (Homo sapiens, UniProt Q96MU7).
T2 construct: YTHDC1 (residues 345–509); made in house; host or cells: Escherichia coli BL21(DE3); plasmid from the Zhou lab (Boston College)
Briefly: EMSA with YTHDC1. It counts as binding. The conditions noted are these: m6A RNA 20 nM. On the procedure: (§3) Compounds with different concentrations (3.1–100 μM) were incubated with 250 nM YTH-domain and 20 nM FAM-17mer-RNA in a buffer containing 20 mM HEPES, pH 8.2, 50 mM NaCl, 0.05% Triton X-100, and 5% v/v glycerol for 20 min at 4 °C. The samples were subjected to 12% native polyacrylamide gel and run at 120 V for 90 min at 4 °C using 0.5× TBE buffer. Gel imaging was performed in ChemiDoc MP (Bio-Rad), and Cy2/Alexa488 fluorescence was detected with a 1-min exposure time. Quantification of the gel image was performed by ImageJ.
Figure S14. The EMSA of YTHDC1 binding to the m6A RNA substrate. (A) The YTHDC1–RNA
complex formation in EMSA using m6A RNA (20 nM) and different concentrations of YTHDC1.
as §2

The target in series [2] is T3, YTHDF1 (residues 375-552) (Homo sapiens, UniProt Q9BYJ9).
T3 construct: Plasmids of the YTH domain of YTHDF1 (residues 375–552); made in house; host or cells: Escherichia coli BL21(DE3); plasmid from the Zhou lab (Boston College)
T3 sequence (Q9BYJ9 375-552): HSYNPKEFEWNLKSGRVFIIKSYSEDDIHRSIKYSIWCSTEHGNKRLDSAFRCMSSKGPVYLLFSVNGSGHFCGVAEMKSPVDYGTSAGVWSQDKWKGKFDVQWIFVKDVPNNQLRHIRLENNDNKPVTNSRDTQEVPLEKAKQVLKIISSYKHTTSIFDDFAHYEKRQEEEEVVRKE
The experiment in a line: FP assay with YTH domain of YTHDF1. It counts as binding. The note with it: 0.5 µM YTHDF1, m6A RNA probe 4 nM. As for the experimental part: as §1
Figure S8. The FP assay of YTHDF1 binding to the m6A RNA substrate. (A)The purification of YTHDF1 (residues 375-552), molecular weight: 21.9 kDa. (B) The anisotropy values using different concentrations of YTHDF1 with the m6A RNA probe (4 nM), which was used to decide the appropriate […] concentration for the FP (0.5 µM of YTHDF1, Z-factor: 0.65). (C) The […]
as §2

For another series, the target named is T4, YTHDC2 (Homo sapiens, UniProt Q9H6S0).
T4 construct: YTHDC2 (residues 1285–1424); made in house; host or cells: Escherichia coli BL21(DE3); plasmid from the Zhou lab (Boston College)
T4 sequence (Q9H6S0 1285-1424): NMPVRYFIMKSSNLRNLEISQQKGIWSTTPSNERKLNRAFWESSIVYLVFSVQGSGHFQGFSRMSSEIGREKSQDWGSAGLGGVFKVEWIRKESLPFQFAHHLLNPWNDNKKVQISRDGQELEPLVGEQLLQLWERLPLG
Briefly: EMSA with YTHDC2. The conditions noted are these: m6A RNA 20 nM, 10 µM YTHDC2. It counts as binding. On the procedure: as §3
Figure S15. EMSA using m6A RNA and YTHDC2 protein of varied concentrations as indicated.
(A) 20 nM of m6A RNA was used and 10 µM of YTHDC2 was chosen for EMSA. (B) CK-61, CK-
as §2
For orientation: In EMSA bound probe runs differently from free probe, usually more slowly.

The target in another series is T5, YTHDF3 (Homo sapiens, UniProt Q7Z739).
T5 construct: YTHDF3 (residues 391–585); made in house; host or cells: Escherichia coli BL21(DE3); plasmid from the Zhou lab (Boston College)
T5 sequence (Q7Z739 391-585): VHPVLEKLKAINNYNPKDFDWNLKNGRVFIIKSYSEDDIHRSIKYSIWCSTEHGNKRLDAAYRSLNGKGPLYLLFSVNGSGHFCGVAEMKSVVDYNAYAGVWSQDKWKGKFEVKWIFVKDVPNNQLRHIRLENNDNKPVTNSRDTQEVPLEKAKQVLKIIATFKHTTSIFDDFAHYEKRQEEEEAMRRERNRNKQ
Briefly: EMSA with YTHDF3. The format is binding. The conditions noted are these: m6A RNA 20 nM. On the procedure:
as §3
Figure S13. The EMSA of YTHDF3 binding to the m 6A RNA substrate. (A) The YTHDF 3–RNA
complex formation in EMSA using m 6A RNA (20 nM) and different concentrations of YTHDF1 . (B)
as §2

Series [3] is described as follows: MTT cytotoxicity assay, K562. The format is cell-based. The note with it: human, K562 cells, triplicates, read-out: Cytotoxicity against cancer cells (IC50), K562. As for the experimental part:
(§4) JAR, K562, and HCT116 cells were seeded in 96-well plates (3500 cells/well) and incubated for 8 h. The medium with different concentrations of compounds (100, 33.3, 11.1, 3.7, 1.2, and 0.4 μM) was added to the 96-well plates. Data were normalized to the medium with 0.1% DMSO. After incubation for 72 h, MTT solution (5 mg/mL, 20 μL) was added per well in a dark environment and incubated for 4 h. After the medium was discarded, DMSO (150 μL) was added per well, and the absorbance was measured at 492 nm by a plate reader (TECAN Spark).
(In general: Tetrazolium assays rely on reduction of a dye to a coloured formazan, in cell work by metabolically active cells.)

Series [4] in a line: MTT cytotoxicity assay, JAR. It counts as cell-based. The note with it: human, JAR cells, triplicates, read-out: Cytotoxicity against cancer cells (IC50), JAR. On the procedure:
as §4

“Also recorded” adds a separate entry of the source.

For the compound `O=C(O)c1ccc(-n2cc(C(=O)c3cc(Cl)cc(Cl)c3O)cn2)cc1` [CK-61], the “inhibitory activity against YTHDC1 in FP (in words)” value (“inhibitory activity against YTHDC1” for short) in series [1] is listed as “did not show detectable inhibitory activity”. Also, the “inhibition of m6A RNA binding to YTHDC1 in EMSA (in words)” value (“inhibition of m6A RNA binding to YTHDC1” for short) at YTHDC1 is “did not show detectable inhibitory activity; also recorded: no activity”. Moreover, the IC50 – broadly, the concentration that gives 50% inhibition – in series [2] (read-out: IC50 against YTHDF1 in FP) worked out at 67.5 µM. At YTHDC2, the “inhibition of m6A RNA binding to YTHDC2 in EMSA (in words)” value (from here on “inhibition of m6A RNA binding to YTHDC2”) was “did not show detectable inhibitory activity; also recorded: no activity”. Moreover, the “inhibition of m6A RNA binding to YTHDF3 in EMSA (in words)” value (from here on “inhibition of m6A RNA binding to YTHDF3”) on YTHDF3 is “did not show detectable inhibitory activity; also recorded: no activity”. Further, the IC50 at 72 h in series [3] and in series [4] was more than 50 µM each time.

`O=C(O)c1ccc(-n2cc(C(=O)c3c(O)ccc4ccccc34)cn2)cc1` [CK-75]: in series [1], the “inhibitory activity against YTHDC1” value was “did not show detectable inhibitory activity; also recorded: inactive”. Also, the “inhibition of m6A RNA binding to YTHDC1” value at YTHDC1 was “did not show detectable inhibitory activity; also recorded: did not show detectable inhibition”. Also, the “inhibitory activity against YTHDF1 in FP (in words)” value in series [2] was “inactive”. Also, the “inhibition of m6A RNA binding to YTHDC2” value at YTHDC2 is “did not show detectable inhibitory activity; also recorded: did not show detectable inhibition”. The “inhibition of m6A RNA binding to YTHDF3” value at YTHDF3 is “did not show detectable inhibitory activity; also recorded: did not show detectable inhibition”. For the same compound, the results for the IC50 at 72 h in series [3] and in series [4] were 29.7 µM and 47.5 µM, respectively.

With `Cc1cc(O)c(C(=O)c2cnn(-c3ccc(C(=O)O)cc3)c2)cc1Cl` [CK-79], in series [1], the “inhibitory activity against YTHDC1” value is “did not show detectable inhibitory activity; also recorded: inactive”. Moreover, the “inhibition of m6A RNA binding to YTHDC1” value at YTHDC1 is “did not show detectable inhibitory activity; also recorded: did not show detectable inhibition”. Besides, the “inhibitory activity against YTHDF1 in FP (in words)” value in series [2] was “inactive”. The “inhibition of m6A RNA binding to YTHDC2” value on YTHDC2 was “did not show detectable inhibitory activity; also recorded: did not show detectable inhibition”. In addition, on YTHDF3, the “inhibition of m6A RNA binding to YTHDF3” value was “did not show detectable inhibitory activity; also recorded: did not show detectable inhibition”. Further, the IC50 at 72 h in series [3] turned out to be 29.4 ± 16.7 µM; in series [4], 31.6 µM.
